Source: patent publication US20240299558A1, “PROTEOLYSIS TARGETING CHIMERAS AND POLYPHARMACOLOGICAL AGENTS TARGETING BCL-2, AND METHODS OF USE THEREOF” (University of Maryland, Baltimore, priority 2021, published 2024)

Tests used:
BCL-2^1-211 = BCL-2^1-211 (Homo sapiens, UniProt P10415); assay: Fluorescence polarization competition assay (FPCA), FITC-Bak competed off BCL-2; assay type: binding
Procedure: Fluorescence polarization assays were performed in 96 well polypropylene F-bottom black microplates (Greiner Bio-One) with a final volume of 100 μL. […] The changes in the fluorescence polarization were then measured using a BMG PHERAstar FS multimode microplate reader equipped with two PMTs for simultaneous measurements of both the perpendicular and parallel fluorescence emission at a 485 nm excitation and 520 nm emission filter.
The fluorescence polarization competition assays were setup using a Biomek FXP Automated Liquid Handling System. […] The IC50 values were then converted to Ki values using an equation derived by Nikolovska-Coleska et al. All inhibitors were tested in triplicate.

MOLM14 AML cells = assay: Luc-labelled MOLM14 AML xenograft pilot experiment in NRG mice; conditions: two 5d PO treatment cycles (d1-5, d21-25), imaging d7, d14, d21, 5 mice/group
Procedure: Statistical analyses are conducted using GraphPad software. AML burden is quantified using log transformed ratio of luminescence at d7/14/21 vs do for each mouse (fold-change); groups are compared using the appropriate parametric (ANOVA; t-test, etc) or non-parametric alternative as necessary (Wilcoxon rank sum, Kruskal-Wallis). For time-to-event endpoints, Kaplan-Meier survival of groups are compared using the log-rank test. p<0.05 is considered statistically different.
On d0, after Xenogen quantification of baseline total body luminescence (AML burden), groups of 5 AML-bearing mice were treated on days 1-5, per previously established MTD PO×5d schedule, with VEN (150 mg/kg/d PO×5), as monotherapy or co-administered with SOR (30 mg/kg/d PO×5), ART (50 mg/kg/d PO×5), and/or ASP (200 IU/kg IP single dose). A second identical drug cycle was administered on d21-25. On d7, d14 and d21, each mouse was Xenogen imaged for total body luminescence, fold-change AML burden from do was calculated for each mouse, and mean (+/−SD) fold-change for each experimental group plotted.

Chain of BCL-2^1-211 (P10415 1-211): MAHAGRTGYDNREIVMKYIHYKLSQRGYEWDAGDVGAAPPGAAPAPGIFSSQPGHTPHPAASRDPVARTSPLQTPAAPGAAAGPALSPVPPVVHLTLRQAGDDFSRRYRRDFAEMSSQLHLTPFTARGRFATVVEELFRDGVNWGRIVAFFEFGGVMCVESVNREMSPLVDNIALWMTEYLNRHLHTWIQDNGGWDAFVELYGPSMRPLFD

IC50 (BCL-2^1-211) [nM]	Compound	AML burden over time (fold-change total body luminescence) vs vehicle (MOLM14 AML cells)	AML burden over time (fold-change total body luminescence) vs vehicle (MOLM14 AML cells; listed as SOR)
< 20	CC1(C)CCC(CN2CCN(c3ccc(C(=O)NS(=O)(=O)c4ccc(NCCOCCOCCNC(=O)C(c5ccccc5)c5ccccc5)c([N+](=O)[O-])c4)c(Oc4cnc5[nH]ccc5c4)c3)CC2)=C(c2ccc(Cl)cc2)C1 [CG-2-132]		
< 20	CC(C)Cc1ccc([C@@H](C)C(=O)NCCOCCOCCNc2ccc(S(=O)(=O)NC(=O)c3ccc(N4CCN(CC5=C(c6ccc(Cl)cc6)CC(C)(C)CC5)CC4)cc3Oc3cnc4[nH]ccc4c3)cc2[N+](=O)[O-])cc1 [CG-3-005]		

Further lines, the compound ahead of its results:

Compound	IC50 (BCL-2^1-211) [nM]	AML burden over time (fold-change total body luminescence) vs vehicle (MOLM14 AML cells)	AML burden over time (fold-change total body luminescence) vs vehicle (MOLM14 AML cells; listed as SOR)
CC1(C)CCC(CN2CCN(c3ccc(C(=O)NS(=O)(=O)c4ccc(NCCNC(=O)CC56CC7CC(CC(C7)C5)C6)c([N+](=O)[O-])c4)c(Oc4cnc5[nH]ccc5c4)c3)CC2)=C(c2ccc(Cl)cc2)C1 [SF-7-330]	< 20		
CNC(=O)c1cc(Oc2ccc(NC(=O)Nc3ccc(Cl)c(C(F)(F)F)c3)cc2)ccn1 [Sorafenib]		reduced AML burden only moderately	significant difference in AML burden only at d7 and d14
PEGylated L-asparaginase		minimal activity	
